From patent publication US9512107B2, “Therapeutically active compositions and their methods of use” (Agios Pharmaceuticals, Inc., priority 2012, dated 2016) come the findings set out here.

Molecules are shown by their SMILES.

The target of one assay is T1, IDH2 R140Q (Homo sapiens, UniProt P48735, R140Q).
T1 sequence (P48735 40-452 R140Q): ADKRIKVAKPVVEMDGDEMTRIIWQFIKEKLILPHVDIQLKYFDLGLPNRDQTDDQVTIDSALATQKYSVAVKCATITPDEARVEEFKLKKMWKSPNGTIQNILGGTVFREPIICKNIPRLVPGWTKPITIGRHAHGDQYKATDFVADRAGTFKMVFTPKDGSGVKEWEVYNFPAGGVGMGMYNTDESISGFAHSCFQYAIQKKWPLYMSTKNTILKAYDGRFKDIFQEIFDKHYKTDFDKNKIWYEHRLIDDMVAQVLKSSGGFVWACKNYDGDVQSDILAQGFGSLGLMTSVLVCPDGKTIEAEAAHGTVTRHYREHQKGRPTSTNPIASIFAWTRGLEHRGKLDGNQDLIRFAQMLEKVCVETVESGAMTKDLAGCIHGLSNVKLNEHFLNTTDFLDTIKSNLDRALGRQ
Kind of assay: IDH2 R140Q enzymatic assay (cofactor depletion, similar format). The format is biochemical. The note with it: read-out: Enz R140Q.

Assay [1] relates to U87MG pLVX-IDH2 R140Q-neo cells. As to the kind of experiment: U87MG pLVX-IDH2 R140Q-neo cell based assay, 2-HG in media by LC-MS at 48 hours. The note with it: for IC50: Homo sapiens, U-87 MG. In short, it runs like this:
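U87MG cells stably expressing IDH2 R140Q were seeded overnight, then exposed to compound at 0.2% final DMSO at 37 °C, 5% CO2. 2-HG in the medium was quantified by LC-MS at 48 h. Growth inhibition was read by CellTiter-Glo luminescence at 72 h.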

Regarding `CC(C)Nc1nc(Nc2ccnc(N3CCC3)c2)nc(-c2ccccc2)n1` [Compound 299, N^2-(2-(azetidin-1-yl)pyridin-4-yl)-N^4-isopropyl-6-phenyl-1,3,5-triazine-2,4-diamine], the IC50 at IDH2 R140Q was below 100 nM; in assay [1], 100 to 1000 nM.

`CC(C)Nc1nc(Nc2cccc(S(C)(=O)=O)c2)nc(-c2cc(F)cc(C(F)(F)F)c2)n1` [Compound 660, 6-(3-fluoro-5-(trifluoromethyl)phenyl)-N2-isopropyl-N4-(3-(methylsulfonyl)phenyl)-1,3,5-triazine-2,4-diamine]: the values for the IC50 (on IDH2 R140Q; in assay [1]) were 100 to 1000 nM and 1000 to 10000 nM, respectively.

As to `CC(C)Nc1nc(Nc2cncc(C(F)(F)F)c2)nc(-c2ccccc2)n1` [Compound 329, N^2-isopropyl-6-phenyl-N^4-(5-(trifluoromethyl)pyridin-3-yl)-1,3,5-triazine-2,4-diamine], the IC50 (on IDH2 R140Q; in assay [1]) was below 100 nM each time.

Turning to `Clc1cncc(Nc2nc(NC3CCC3)nc(-c3ccccn3)n2)c1` [Compound 330, N^2-(5-chloropyridin-3-yl)-N^4-cyclobutyl-6-(pyridin-2-yl)-1,3,5-triazine-2,4-diamine], the IC50 on IDH2 R140Q is 100 to 1000 nM; in assay [1] it was below 100 nM.

On to `CC(C)(C)CNc1nc(Nc2ccc(F)nc2)nc(-c2ccccn2)n1` [Compound 363, N^2-(6-fluoropyridin-3-yl)-N^4-neopentyl-6-(pyridin-2-yl)-1,3,5-triazine-2,4-diamine], for which the values for the IC50 (at IDH2 R140Q; in assay [1]) were 100 to 1000 nM and below 100 nM, respectively.

As to `CC(C)(O)CNc1nc(Nc2ccnc(C(F)(F)F)c2)nc(-c2cccc(Cl)n2)n1` [Compound 391, 1-(4-(6-chloropyridin-2-yl)-6-(2-(trifluoromethyl)pyridin-4-ylamino)-1,3,5-triazin-2-ylamino)-2-methylpropan-2-ol], the IC50 at IDH2 R140Q was 100 to 1000 nM; in assay [1], below 100 nM.

Regarding `CC(O)CNc1nc(Nc2ccnc(C(F)(F)F)c2)nc(-c2cccc(Cl)n2)n1` (centres unmarked) [Compound 389, 1-(4-(6-chloropyridin-2-yl)-6-(2-(trifluoromethyl)pyridin-4-ylamino)-1,3,5-triazin-2-ylamino)propan-2-ol], the IC50 was 1000 to 10000 nM on IDH2 R140Q and below 100 nM in assay [1].

For the compound `CC(C)(O)CNc1nc(Nc2ccc(F)nc2)nc(-c2cccc(C(F)(F)F)n2)n1` [Compound 385, 1-(4-(6-fluoropyridin-3-ylamino)-6-(6-(trifluoromethyl)pyridin-2-yl)-1,3,5-triazin-2-ylamino)-2-methylpropan-2-ol], the IC50 on IDH2 R140Q is 1000 to 10000 nM; in assay [1], 100 to 1000 nM.

For `CC(C)Nc1nc(Nc2cncs2)nc(-c2ccccc2)n1` [Compound 313, N^2-isopropyl-6-phenyl-N^4-(thiazol-5-yl)-1,3,5-triazine-2,4-diamine], the IC50 (on IDH2 R140Q; in assay [1]) was below 100 nM each time.

Take `CC(C)Nc1nc(Nc2cncc(F)c2)nc(-c2cccc(Cl)n2)n1` [Compound 383, 6-(6-chloropyridin-2-yl)-N^2-(5-fluoropyridin-3-yl)-N^4-isopropyl-1,3,5-triazine-2,4-diamine]: the IC50 at IDH2 R140Q was 100 to 1000 nM; in assay [1], below 100 nM.

With `CC(C)Nc1nc(Nc2ccc(C3CC3)nc2)nc(-c2ccccc2)n1` [Compound 316, N^2-(6-cyclopropylpyridin-3-yl)-N^4-isopropyl-6-phenyl-1,3,5-triazine-2,4-diamine], the IC50 (at IDH2 R140Q; in assay [1]) was 100 to 1000 nM in each case.

With `Cc1ncc(Nc2nc(NC(C)C)nc(-c3ccccc3)n2)cn1` [Compound 343, N^2-isopropyl-N^4-(2-methylpyrimidin-5-yl)-6-phenyl-1,3,5-triazine-2,4-diamine], the IC50 (at IDH2 R140Q; in assay [1]) was 100 to 1000 nM each time.

As for `Cc1cccc(-c2nc(Nc3cccc(S(C)(=O)=O)c3)nc(NC(C)C)n2)n1` [Compound 359, N^2-isopropyl-6-(6-methylpyridin-2-yl)-N^4-(3-(methylsulfonyl)phenyl)-1,3,5-triazine-2,4-diamine], the IC50 (on IDH2 R140Q; in assay [1]) was 100 to 1000 nM each time.

On to `OC1CCCC(Nc2nc(Nc3ccncc3)nc(-c3ccccc3)n2)C1` (centres unmarked) [Compound 304, 3-(4-phenyl-6-(pyridin-4-ylamino)-1,3,5-triazin-2-ylamino)cyclohexanol], for which the IC50 at IDH2 R140Q was 1000 to 10000 nM. Further, the “Cell R140Q” value in assay [1] is on record as “No Fit”.

Take `O=C(Nc1nc(Nc2ccccc2)nc(-c2ccccc2)n1)c1ccc[nH]1` [Compound 414, 1H-Pyrrole-2-carboxylic acid (4-phenyl-6-phenylamino-[1,3,5]triazin-2-yl)-amide]: the IC50 (at IDH2 R140Q; in assay [1]) was 100 to 1000 nM in each case.

On to `CC(C)Nc1nc(Nc2cncnc2)nc(-c2cccc(Cl)n2)n1` [Compound 353, 6-(6-chloropyridin-2-yl)-N^2-isopropyl-N^4-(pyrimidin-5-yl)-1,3,5-triazine-2,4-diamine], for which the IC50 at IDH2 R140Q was 100 to 1000 nM; in assay [1], below 100 nM.

As for `O[C@H]1CCC[C@H]1Nc1nc(Nc2ccccc2)nc(-c2ccccc2)n1` [Compound 352, (1S,2R)-2-(4-phenyl-6-(phenylamino)-1,3,5-triazin-2-ylamino)cyclopentanol], the IC50 (on IDH2 R140Q; in assay [1]) was below 100 nM throughout.

Regarding `Fc1cncc(Nc2nc(NC3C4COCC43)nc(-c3cccc(C(F)(F)F)n3)n2)c1` (centres unmarked) [Compound 411, N^2-(3-oxabicyclo[3.1.0]hexan-6-yl)-N^4-(5-fluoropyridin-3-yl)-6-(6-(trifluoromethyl)pyridin-2-yl)-1,3,5-triazine-2,4-diamine], the IC50 at IDH2 R140Q was 1000 to 10000 nM; in assay [1] it was below 100 nM.

Consider `c1ccc(-c2nc(Nc3ccncc3)nc(N[C@@H]3C[C@@H]4CC[C@H]3C4)n2)cc1` [Compound 295, N^2-((1S,2R,4R)-bicyclo[2.2.1]heptan-2-yl)-6-phenyl-N^4-(pyridin-4-yl)-1,3,5-triazine-2,4-diamine], for which the IC50 (at IDH2 R140Q; in assay [1]) was below 100 nM throughout.

Turning to `CC(C)Nc1nc(Nc2cncc(C#N)c2)nc(-c2cccc(C(F)(F)F)n2)n1` [Compound 401, 5-(4-(isopropylamino)-6-(6-(trifluoromethyl)pyridin-2-yl)-1,3,5-triazin-2-ylamino)nicotinonitrile], the values for the IC50 (at IDH2 R140Q; in assay [1]) were 100 to 1000 nM and below 100 nM, respectively.

For the compound `Fc1cncc(Nc2nc(NC3COC3)nc(-c3cccc(C(F)(F)F)n3)n2)c1` [Compound 381, N^2-(5-fluoropyridin-3-yl)-N^4-(oxetan-3-yl)-6-(6-(trifluoromethyl)pyridin-2-yl)-1,3,5-triazine-2,4-diamine], the IC50 on IDH2 R140Q is 100 to 1000 nM; in assay [1], below 100 nM.

Take `c1ccc(Nc2nc(N[C@@H]3C[C@@H]4CC[C@H]3C4)nc(-c3ccccc3)n2)cc1` [Compound 296, N^2-((1S,2R,4R)-bicyclo[2.2.1]heptan-2-yl)-N^4,6-diphenyl-1,3,5-triazine-2,4-diamine]: the values for the IC50 (on IDH2 R140Q; in assay [1]) were 100 to 1000 nM and below 100 nM, respectively.

As for `Fc1cncc(Nc2nc(NC3CCC3)nc(-c3ccccn3)n2)c1` [Compound 322, N^2-cyclobutyl-N^4-(5-fluoropyridin-3-yl)-6-(pyridin-2-yl)-1,3,5-triazine-2,4-diamine], the IC50 on IDH2 R140Q is 100 to 1000 nM; in assay [1] it was below 100 nM.

In the case of `CS(=O)(=O)c1cccc(Nc2nc(NC3CCC3)nc(-c3ccccc3F)n2)c1` [Compound 317, N^2-cyclobutyl-6-(2-fluorophenyl)-N^4-(3-(methylsulfonyl)phenyl)-1,3,5-triazine-2,4-diamine], the IC50 (at IDH2 R140Q; in assay [1]) was below 100 nM throughout.

Consider `CC(C)(O)CNc1nc(Nc2ccnc(F)c2)nc(-c2cccc(Cl)n2)n1` [Compound 368, 1-(4-(6-chloropyridin-2-yl)-6-(2-fluoropyridin-4-ylamino)-1,3,5-triazin-2-ylamino)-2-methylpropan-2-ol], for which the IC50 at IDH2 R140Q was 1000 to 10000 nM; in assay [1] it was below 100 nM.
